Measured values taken from patent US12162857B2, “Antiviral compounds” (priority 2022, dated 2024).

Assays:
[1] = tested on: HMPV A2 TN/94-49; experiment: HMPV antiviral assay: LLC-MK2 cells, ATP-Lite readout; type: cell-based; conditions: MOI 0.005, 7 days incubation
Procedure, shortened: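 LLC-MK2 cells (5,000/well) were infected in suspension with HMPV A2 TN/94-49 at MOI 0.005 in serum-free OptiMEM with 2 μg/mL final TPCK-trypsin, then incubated for 7 days at 37 °C. Compounds were tested in duplicate from 2 μM in 10-point 2.5-fold dilutions. ATP-Lite luminescence, normalised to virus-only and cells-only controls as % cell health, gave EC50 by four-parameter fit.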

[2] = tested on: Human RSV-A (“Long” strain); experiment: RSV-A assay: CPE in Hep-2 cells, ATPlite readout; type: cell-based; conditions: MOI 0.1, 5-day incubation
Text: Hep-2 cells, (originally derived from tumors grown in irradiated-cortisonised weanling rats that had been injected with epidermoid carcinoma tissue from a person's larynx, but later found to be indistinguishable from HeLa cells by PCR DNA analysis), were used for the culturing of genotype A, “Long” strain RSV. Flasks were inoculated with RSV and viral stocks were collected once cytopathic effect (CPE) was greater than 90%. Viral stocks in 25% sucrose media were snap frozen using liquid nitrogen to increase viral stability. Viral stock titers were quantified by tissue culture infectious dose 50% (TCID50) using 8,000 cells per well and 3-fold viral dilutions across a 96-well plate, cultured for 4 days. Viral stock titers were also quantified by a plaque forming unit assay, as described elsewhere.
Following extensive parameter testing, the final assay is run as follows: Hep-2 cells are seeded into the inner 60 wells of a 96-well plate at 8,000 cells per well in a volume of 50 μL using Growth Media (DMEM without phenol red, 1% L-Glut, 1% Penn/Strep, 1% nonessential amino acids, 10% heat-inactivated FBS). 2-fold serial dilutions of control and test compounds are added to the wells in duplicate in a total volume of 25 μL. Viral stock is then added to the wells at a multiplicity of infection (MOI) of 0.1 in a volume of 25 μL, bringing the total volume of each well to 100 μL. The MOI is calculated using the PFU/mL, or TCID50 if unavailable. Each 96-well plate has a control column of 6 wells with cells and virus but no compound (negative control, max CPE), a column with cells but no compound or virus (positive control, minimum CPE), and a column with no cells or virus or compound (background plate/reagent control). The control wells with cells but no virus are given an additional 25 μL of growth media containing an equal quantity of sucrose as those wells receiving the viral stock in order to keep consistent in media and volume conditions. The outer wells of the plate are filled with 125 μL of moat media (DMEM, 100 Penn/Strep) to act as a thermal and evaporative moat around the test wells. Following a 5-day incubation period, the plates are read using ATPlite (50 uL added per well), which quantifies the amount of ATP (a measure of cell health) present in each well. Assay plates are read using the Envision luminometer. […] EC50 ranges are as follows: A<0.01 μM; B 0.01-0.05 μM; C>0.05 μM.

[3] = human respiratory syncytial virus, 120 h

SMILES | EC50 ([1]; LLC-MK2, 168 h) | EC50 [2, 3] | EC50 [1] | EC50 [2]
COc1cc(C(=O)NC[C@](O)(c2cc(C3(C(N)=O)CC3)c(F)c(-c3ccc(F)c(Cl)c3F)n2)C2CC2)cc2cc(Cl)c(C)nc12 (single isomer, unassigned) [Example 23] | > 1000 nM | 10 to 50 nM | – | –
COc1cc(C(=O)NC[C@](O)(c2cc(C3(C(N)=O)CC3)cc(-c3cc(Cl)c(F)cc3F)n2)C2CC2)cc2cn(C3CC3)nc12 (single isomer, unassigned) [Example 24] | > 1000 nM | 10 to 50 nM | – | –
COc1cc(C(=O)NC[C@](O)(c2cc(C3(C(N)=O)CC3)cc(-c3cc(Cl)c(F)cc3F)n2)C2CC2)cc2cn(C(F)F)nc12 (single isomer, unassigned) [Example 25] | > 1000 nM | 10 to 50 nM | – | –
COc1cc(C(=O)NC[C@](O)(c2cc(C3(C(N)=O)CC3)cc(-c3ccc(F)c(Cl)c3F)n2)C2CC2)cc2cn(C3CC3)nc12 (single isomer, unassigned) [Example 26] | > 1000 nM | < 10 nM | – | –
COc1cc(C(=O)NC[C@](O)(c2cc(C(O)(C(F)(F)F)C(F)(F)F)c(F)c(-c3ccc(F)cc3)n2)C2CC2)cc2cn(C3CC3)nc12 (single isomer, unassigned) [Example 47] | > 1000 nM | 10 to 50 nM | – | –
Cc1nc2c(OC3CC3)cc(C(=O)NC[C@](O)(c3cc(C(O)(C(F)(F)F)C(F)(F)F)c(F)c(-c4ccc(F)cc4)n3)C3CC3)cc2cc1Cl (single isomer, unassigned) [Example 48] | > 1000 nM | > 50 nM | – | –
Cc1nc2c(OC3CC3)cc(C(=O)NC[C@](O)(c3cc(C4(O)CC4)c(F)c(-c4ccc(F)cc4)n3)C3CC3)cc2cc1Cl (single isomer, unassigned) [Example 49] | > 1000 nM | < 10 nM | – | –
COc1cc(C(=O)NC[C@](O)(c2cc(C3(O)CC3)c(F)c(-c3ccc(F)cc3)n2)C2CC2)cc2cn(C3CC3)nc12 (single isomer, unassigned) [Example 50] | > 1000 nM | < 10 nM | – | –
Cc1nc2c(OC(F)F)cc(C(=O)NC[C@](O)(c3cc(C4(O)CC4)c(F)c(-c4ccc(F)cc4)n3)C3CC3)cc2cc1Br (single isomer, unassigned) [Example 51] | > 1000 nM | 10 to 50 nM | – | –
COc1cc(C(=O)NC[C@@](O)(c2ccccc2)c2cc(C(C)(C)O)c(Cl)c(-c3cc(Cl)c(F)cc3F)n2)cc2cn(C3CC3)nc12 (single isomer, unassigned) [Example 132] | < 1000 nM | < 10 nM | – | –
COc1cc(C(=O)NC[C@](O)(c2cc(C(C)(C)O)c(F)c(-c3ccc(F)cc3)n2)C2CC2)cc2cn(C3CC3)nc12 [Example 1] | < 1000 nM | < 10 nM | – | –
COc1cc(C(=O)NC[C@](O)(c2cc(C(C)(C)O)c(F)c(-c3ccc(F)cc3)n2)C2CC2)cc2cn(C(F)F)nc12 [Example 2] | < 1000 nM | < 10 nM | – | –
CC(C)(O)c1cc([C@@](O)(CNC(=O)c2ccc3nn(C4CC4)cc3c2)C2CC2)nc(-c2ccc(F)cc2)c1F [Example 3] | > 1000 nM | 10 to 50 nM | – | –
COc1cc(C(=O)NC[C@](O)(c2cc(C(C)(C)O)c(F)c(-c3ccc(F)cc3)n2)C2CC2)cc2cn(C3(F)CC3)nc12 [Example 4] | < 1000 nM | < 10 nM | – | –
CC(C)(O)c1cc([C@@](O)(CNC(=O)c2cc(OC3CC3)c3nn(C4(F)CC4)cc3c2)C2CC2)nc(-c2ccc(F)cc2)c1F [Example 5] | < 1000 nM | < 10 nM | – | –
CC(C)(O)c1cc([C@@](O)(CNC(=O)c2cc(Cl)c3nn(C4CC4)cc3c2)C2CC2)nc(-c2ccc(F)cc2)c1F [Example 6] | < 1000 nM | < 10 nM | – | –
COc1cc(C(=O)NC[C@](O)(c2cc(C3(C#N)CC3)c(F)c(-c3cc(Cl)c(F)cc3F)n2)C2CC2)cc2cn(C(F)F)nc12 [Example 10] | > 1000 nM | 10 to 50 nM | – | –

SMILES | EC50 ([1]; LLC-MK2, 168 h) | EC50 [2, 3] | EC50 [1] | EC50 [2]
COc1cc(C(=O)NC[C@](O)(c2cc(C(C)(C)O)c(F)c(-c3cc(Cl)c(F)cc3F)n2)C2CC2)cc2cn(C3CC3)nc12 [Example 52] | < 1000 nM | < 10 nM | – | –
COc1cc(C(=O)NC[C@](O)(c2cc(C(C)(C)O)c(F)c(-c3cc(Cl)c(F)cc3F)n2)C2CC2)cc2cc(Cl)c(C)nc12 [Example 57] | < 1000 nM | < 10 nM | – | –
Cc1nc2c(OC(F)F)cc(C(=O)NC[C@](O)(c3cc(C(C)(C)O)c(F)c(-c4cc(Cl)c(F)cc4F)n3)C3CC3)cc2cc1Br [Example 59] | > 1000 nM | < 10 nM | – | –
COc1cc(C(=O)NC[C@@](O)(c2ccccc2)c2cc(C(C)(C)O)c(F)c(-c3cc(Cl)c(F)cc3F)n2)cc2cn(C(F)F)nc12 [Example 62] | < 1000 nM | < 10 nM | – | –
COc1cc(C(=O)NC[C@@](O)(c2ccccc2)c2cc(C(C)(C)O)c(F)c(-c3cc(Cl)c(F)cc3F)n2)cc2cc(C3CC3)nn12 [Example 64] | < 1000 nM | < 10 nM | – | –
COc1cc(C(=O)NC[C@@](O)(c2ccccc2)c2cc(C(C)(C)O)c(F)c(-c3cc(Cl)c(F)cc3F)n2)cc2cc(Cl)c(C)nc12 [Example 65] | < 1000 nM | 10 to 50 nM | – | –
Cc1nc2c(OC(F)F)cc(C(=O)NC[C@@](O)(c3ccccc3)c3cc(C(C)(C)O)c(F)c(-c4cc(Cl)c(F)cc4F)n3)cc2cc1Br [Example 66] | < 1000 nM | > 50 nM | – | –
COc1cc(C(=O)NC[C@@](O)(c2ccccc2)c2cc(C(C)(C)O)c(F)c(-c3ccc(F)c(Cl)c3Cl)n2)cc2cn(C3CC3)nc12 [Example 67] | < 1000 nM | < 10 nM | – | –
COc1cc(C(=O)NC[C@@](O)(c2ccccc2)c2cc(C(C)(C)O)c(F)c(-c3ccc4c(c3Cl)OC(F)(F)O4)n2)cc2cn(C3CC3)nc12 [Example 74] | < 1000 nM | < 10 nM | – | –
COc1cc(C(=O)NC[C@@](O)(c2ccccc2)c2cc(C(C)(C)O)c(F)c(-c3cccc(Cl)c3Cl)n2)cc2cn(C3CC3)nc12 [Example 79] | < 1000 nM | < 10 nM | – | –
COc1cc(C(=O)NC[C@@](O)(c2ccccc2)c2cc(C(C)(C)O)c(F)c(-c3cc(F)c(F)cc3F)n2)cc2cn(C3CC3)nc12 [Example 86] | > 1000 nM | < 10 nM | – | –
COc1cc(C(=O)NC[C@@](O)(c2ccccc2)c2cc(C(C)(C)O)c(F)c(-c3ccc(F)c(Cl)c3F)n2)cc2cn(C3CC3)nc12 [Example 123] | < 1000 nM | < 10 nM | – | –
COc1cc(C(=O)NC[C@@](O)(c2ccccc2)c2nc(-c3cc(Cl)c(F)cc3F)c(F)c(C(C)(C)O)c2F)cc2cn(C3CC3)nc12 [Example 127] | < 1000 nM | < 10 nM | – | –
COc1cc(C(=O)NC[C@@](O)(c2ccccc2)c2cc(C(C)(C)O)c(Cl)c(-c3ccc4c(c3Cl)OC(F)(F)O4)n2)cc2cn(C3CC3)nc12 [Example 136] | < 1000 nM | < 10 nM | – | –
COc1cc(C(=O)NC[C@@](O)(c2ccccc2)c2cc(C(C)(C)O)c(Cl)c(-c3cc(Cl)c(F)cc3F)n2)cc2cn(C3CC3)nc12 [Example 144] | – | – | < 1000 nM | < 10 nM
COc1c(C(C)(C)O)cc([C@@](O)(CNC(=O)c2cc(OC)c3nn(C4CC4)cc3c2)C2CC2)nc1-c1cc(Cl)c(F)cc1F [Example 164] | > 1000 nM | > 50 nM | – | –
COc1cc(C(=O)NC[C@](O)(c2cc(C3(O)CNC3)c(F)c(-c3cc(Cl)c(F)cc3F)n2)C2CC2)cc2cn(C3CC3)nc12 [Example 170] | > 1000 nM | > 50 nM | – | –
